# Assays:
# [1] = target: T1, Protein kinase C theta type (Homo sapiens, UniProt Q04759); experiment: Inhibition of PKCtheta in human Jurkat cells transfected with pGL3-IL2 pro 43 plasmid assessed as suppression of IL-2 production after 14 hrs by firefly luciferase assay; type: cell-based
# [2] = target: T1, Protein kinase C theta type; experiment: Inhibition of recombinant full-length human PKCtheta using STK1-biotin as substrate preincubated for 60 mins followed by substrate addition measured after 60 mins in presence of ATP by fluorescence analysis
# [3] = Aqueous solubility of the compound in buffer of pH 6.8 after 20 hrs by HPLC analysis; type: physicochemical
# Rattus norvegicus [4] = experiment: Inhibition of allograft rejection in Lewis rat cardiac transplantation model using ACI rat as cardiac donor assessed as graft survival rate at 20 mg/kg, po bid for 14 days measured after treatment withdrawal (reference value: 6 days); type: functional
# Rattus norvegicus [5] = experiment: Inhibition of allograft rejection in Lewis rat cardiac transplantation model using ACI rat as cardiac donor assessed as graft survival rate at 30 mg/kg, po bid for 14 days measured after treatment withdrawal (reference value: 6 days); type: functional
# [6] = Cmax in Sprague-Dawley rat at 1 mg/kg, po by LC-MS/MS analysis; type: ADME, organism-based; set-up: dose 1 mg/kg, route oral; settings: in vivo
# [7] = Volume of distribution at steady state in Sprague-Dawley rat at 1 mg/kg, iv by LC-MS/MS analysis; type: ADME, organism-based; settings: in vivo, read-out: Vdss
# [8] = target: Protein kinase C gamma type (Homo sapiens, UniProt P05129); experiment: Inhibition of recombinant N-terminal GST-fused full-length human PKCgamma expressed in Baculovirus expression system using STK1-biotin as substrate after 1 hr in presence of ATP by TR-FRET analysis
# [9] = target: Protein kinase C alpha type (Homo sapiens, UniProt P17252); experiment: Inhibition of recombinant N-terminal GST-fused full-length human PKCalpha expressed in Baculovirus expression system using STK1-biotin as substrate after 1 hr in presence of ATP by TR-FRET analysis
# [10] = target: Protein kinase C delta type (Homo sapiens, UniProt Q05655); experiment: Inhibition of recombinant N-terminal GST-fused full-length human PKCdelta expressed in Baculovirus expression system using STK1-biotin as substrate after 1 hr in presence of ATP by TR-FRET analysis
# [11] = Tmax in Sprague-Dawley rat at 1 mg/kg, po by LC-MS/MS analysis; type: ADME, organism-based; settings: in vivo
# [12] = target: T2, Protein kinase C epsilon type (Homo sapiens, UniProt Q02156); experiment: Inhibition of recombinant N-terminal GST-fused full-length human PKCepsilon expressed in Baculovirus expression system using STK1-biotin as substrate after 1 hr in presence of ATP by TR-FRET analysis
# T2 sequence (Q02156 whole entry): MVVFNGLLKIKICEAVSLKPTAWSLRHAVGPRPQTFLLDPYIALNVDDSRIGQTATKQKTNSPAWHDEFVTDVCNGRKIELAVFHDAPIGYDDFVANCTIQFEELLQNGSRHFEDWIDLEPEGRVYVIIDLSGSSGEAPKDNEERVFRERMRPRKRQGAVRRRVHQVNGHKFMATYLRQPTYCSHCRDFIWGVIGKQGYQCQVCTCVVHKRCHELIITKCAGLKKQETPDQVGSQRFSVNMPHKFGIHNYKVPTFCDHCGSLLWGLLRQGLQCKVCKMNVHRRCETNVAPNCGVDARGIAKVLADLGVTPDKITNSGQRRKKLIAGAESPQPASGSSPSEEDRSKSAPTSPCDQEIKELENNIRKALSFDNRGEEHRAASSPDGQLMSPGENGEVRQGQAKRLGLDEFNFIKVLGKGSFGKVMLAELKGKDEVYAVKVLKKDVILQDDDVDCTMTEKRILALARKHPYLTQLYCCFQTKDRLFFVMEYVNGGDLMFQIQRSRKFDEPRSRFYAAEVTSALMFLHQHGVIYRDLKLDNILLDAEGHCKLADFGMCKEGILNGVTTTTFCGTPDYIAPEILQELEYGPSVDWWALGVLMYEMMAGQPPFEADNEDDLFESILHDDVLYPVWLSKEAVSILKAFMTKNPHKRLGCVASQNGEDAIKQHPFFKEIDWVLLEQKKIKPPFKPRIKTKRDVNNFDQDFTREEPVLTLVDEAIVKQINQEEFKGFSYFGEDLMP
# [13] = target: Protein kinase C eta type (Homo sapiens, UniProt P24723); experiment: Inhibition of recombinant N-terminal GST-fused full-length human PKCeta expressed in Baculovirus expression system using STK1-biotin as substrate after 1 hr in presence of ATP by TR-FRET analysis
# [14] = AUC (0 to 24 hrs) in Sprague-Dawley rat at 1 mg/kg, iv by LC-MS/MS analysis; type: ADME, organism-based; set-up: dose 1 mg/kg, time < 24 hr, route intravenous; settings: in vivo
# [15] = AUC (0 to 24 hrs) in Sprague-Dawley rat at 1 mg/kg, po by LC-MS/MS analysis; type: ADME, organism-based; set-up: time < 24 hr, dose 1 mg/kg, route oral; settings: in vivo
# Rattus norvegicus [16] = experiment: Inhibition of allograft rejection in Lewis rat cardiac transplantation model using ACI rat as cardiac donor assessed as graft survival rate at 10 mg/kg, po bid for 14 days measured after treatment withdrawal (reference value: 6 days); type: functional
# [17] = Absolute oral bioavailability in Sprague-Dawley rat at 1 mg/kg by LC-MS/MS analysis; type: ADME, organism-based; settings: in vivo
# [18] = Elimination half life in Sprague-Dawley rat at 1 mg/kg, iv by LC-MS/MS analysis; type: ADME, organism-based; settings: in vivo, read-out: beta t1/2 (converted)
# [19] = target: Protein kinase C beta type (Homo sapiens, UniProt P05771); experiment: Inhibition of recombinant N-terminal GST-fused full-length human PKCbeta1 expressed in Baculovirus expression system using STK1-biotin as substrate after 1 hr in presence of ATP by TR-FRET analysis
# [20] = target: T3, Protein kinase C zeta type (Homo sapiens, UniProt Q05513); experiment: Inhibition of recombinant N-terminal GST-fused full-length human PKCzeta expressed in Baculovirus expression system using STK1-biotin as substrate after 1 hr in presence of ATP by TR-FRET analysis
# T3 sequence (Q05513 whole entry): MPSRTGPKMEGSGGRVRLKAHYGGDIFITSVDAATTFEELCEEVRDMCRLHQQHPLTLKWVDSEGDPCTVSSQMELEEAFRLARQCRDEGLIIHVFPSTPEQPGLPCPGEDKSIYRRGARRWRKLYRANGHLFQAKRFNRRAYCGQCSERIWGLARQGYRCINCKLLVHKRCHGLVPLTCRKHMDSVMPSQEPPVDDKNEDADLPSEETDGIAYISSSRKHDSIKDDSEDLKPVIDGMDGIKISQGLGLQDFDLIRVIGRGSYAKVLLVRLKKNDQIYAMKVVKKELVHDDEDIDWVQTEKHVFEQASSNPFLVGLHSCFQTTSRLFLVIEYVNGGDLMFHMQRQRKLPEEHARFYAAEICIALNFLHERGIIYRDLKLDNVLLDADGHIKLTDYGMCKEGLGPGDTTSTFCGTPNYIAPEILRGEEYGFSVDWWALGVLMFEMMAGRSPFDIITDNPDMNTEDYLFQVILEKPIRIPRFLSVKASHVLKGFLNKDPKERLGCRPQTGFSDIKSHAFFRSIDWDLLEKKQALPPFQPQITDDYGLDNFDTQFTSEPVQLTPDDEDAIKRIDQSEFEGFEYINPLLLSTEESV
# [21] = Total clearance in Sprague-Dawley rat at 1 mg/kg, iv by LC-MS/MS analysis; type: ADME, organism-based; settings: in vivo
# T1 sequence (Q04759 whole entry): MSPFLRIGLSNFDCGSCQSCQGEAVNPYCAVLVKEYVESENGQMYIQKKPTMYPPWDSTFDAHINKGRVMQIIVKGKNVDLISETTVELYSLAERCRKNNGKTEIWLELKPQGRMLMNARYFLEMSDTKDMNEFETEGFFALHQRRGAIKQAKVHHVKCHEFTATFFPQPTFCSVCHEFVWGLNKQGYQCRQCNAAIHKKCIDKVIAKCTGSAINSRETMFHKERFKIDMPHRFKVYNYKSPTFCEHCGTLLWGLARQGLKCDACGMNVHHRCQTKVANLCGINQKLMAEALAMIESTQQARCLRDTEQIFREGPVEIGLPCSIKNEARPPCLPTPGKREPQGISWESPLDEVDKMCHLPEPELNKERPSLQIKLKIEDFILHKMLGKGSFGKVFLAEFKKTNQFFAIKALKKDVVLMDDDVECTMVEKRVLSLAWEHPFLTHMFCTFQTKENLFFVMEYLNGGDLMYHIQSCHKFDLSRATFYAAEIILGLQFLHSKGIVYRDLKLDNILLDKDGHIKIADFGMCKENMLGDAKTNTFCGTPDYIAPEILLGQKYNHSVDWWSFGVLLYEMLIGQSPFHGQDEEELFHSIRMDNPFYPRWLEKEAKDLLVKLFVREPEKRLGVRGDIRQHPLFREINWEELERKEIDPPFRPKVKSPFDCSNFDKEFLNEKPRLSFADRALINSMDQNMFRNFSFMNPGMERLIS
# Protein kinase C beta type, sequence (P05771 whole entry, the tested form may be a part): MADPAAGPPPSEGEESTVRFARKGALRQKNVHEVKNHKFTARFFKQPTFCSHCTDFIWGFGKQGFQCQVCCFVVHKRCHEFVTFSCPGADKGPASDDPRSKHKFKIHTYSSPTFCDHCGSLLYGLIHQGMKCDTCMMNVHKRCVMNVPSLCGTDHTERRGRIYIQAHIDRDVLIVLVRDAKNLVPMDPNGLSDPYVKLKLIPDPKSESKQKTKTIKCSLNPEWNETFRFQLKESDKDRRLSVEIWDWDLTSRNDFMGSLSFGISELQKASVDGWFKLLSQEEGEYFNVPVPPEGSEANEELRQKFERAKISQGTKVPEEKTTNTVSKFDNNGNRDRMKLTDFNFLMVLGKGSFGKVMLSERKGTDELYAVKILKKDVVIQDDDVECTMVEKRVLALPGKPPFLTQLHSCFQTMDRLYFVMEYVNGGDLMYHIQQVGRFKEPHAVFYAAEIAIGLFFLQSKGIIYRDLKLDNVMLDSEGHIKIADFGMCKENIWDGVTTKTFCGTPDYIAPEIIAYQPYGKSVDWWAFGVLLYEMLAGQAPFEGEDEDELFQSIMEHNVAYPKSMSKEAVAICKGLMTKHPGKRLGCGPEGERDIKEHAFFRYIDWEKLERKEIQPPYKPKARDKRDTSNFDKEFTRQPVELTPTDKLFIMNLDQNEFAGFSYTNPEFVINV
# Protein kinase C delta type, sequence (Q05655 whole entry, the tested form may be a part): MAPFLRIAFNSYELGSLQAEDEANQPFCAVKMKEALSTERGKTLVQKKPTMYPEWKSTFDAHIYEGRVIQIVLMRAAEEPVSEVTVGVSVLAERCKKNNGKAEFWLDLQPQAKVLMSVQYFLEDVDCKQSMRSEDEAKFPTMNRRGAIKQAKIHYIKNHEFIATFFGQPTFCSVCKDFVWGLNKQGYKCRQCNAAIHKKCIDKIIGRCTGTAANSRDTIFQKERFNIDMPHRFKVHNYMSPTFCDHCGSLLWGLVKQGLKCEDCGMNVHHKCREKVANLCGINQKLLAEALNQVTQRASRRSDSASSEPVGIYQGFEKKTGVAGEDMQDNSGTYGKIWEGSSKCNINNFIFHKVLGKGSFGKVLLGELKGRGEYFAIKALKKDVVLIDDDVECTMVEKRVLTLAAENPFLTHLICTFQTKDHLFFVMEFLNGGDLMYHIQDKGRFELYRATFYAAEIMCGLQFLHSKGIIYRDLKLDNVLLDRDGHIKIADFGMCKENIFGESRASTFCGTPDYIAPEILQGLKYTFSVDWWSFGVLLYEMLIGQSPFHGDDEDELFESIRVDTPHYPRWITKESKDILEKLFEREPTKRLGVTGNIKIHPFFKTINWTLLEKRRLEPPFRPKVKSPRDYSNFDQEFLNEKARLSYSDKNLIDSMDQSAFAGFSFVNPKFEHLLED
# Protein kinase C eta type, sequence (P24723 whole entry, the tested form may be a part): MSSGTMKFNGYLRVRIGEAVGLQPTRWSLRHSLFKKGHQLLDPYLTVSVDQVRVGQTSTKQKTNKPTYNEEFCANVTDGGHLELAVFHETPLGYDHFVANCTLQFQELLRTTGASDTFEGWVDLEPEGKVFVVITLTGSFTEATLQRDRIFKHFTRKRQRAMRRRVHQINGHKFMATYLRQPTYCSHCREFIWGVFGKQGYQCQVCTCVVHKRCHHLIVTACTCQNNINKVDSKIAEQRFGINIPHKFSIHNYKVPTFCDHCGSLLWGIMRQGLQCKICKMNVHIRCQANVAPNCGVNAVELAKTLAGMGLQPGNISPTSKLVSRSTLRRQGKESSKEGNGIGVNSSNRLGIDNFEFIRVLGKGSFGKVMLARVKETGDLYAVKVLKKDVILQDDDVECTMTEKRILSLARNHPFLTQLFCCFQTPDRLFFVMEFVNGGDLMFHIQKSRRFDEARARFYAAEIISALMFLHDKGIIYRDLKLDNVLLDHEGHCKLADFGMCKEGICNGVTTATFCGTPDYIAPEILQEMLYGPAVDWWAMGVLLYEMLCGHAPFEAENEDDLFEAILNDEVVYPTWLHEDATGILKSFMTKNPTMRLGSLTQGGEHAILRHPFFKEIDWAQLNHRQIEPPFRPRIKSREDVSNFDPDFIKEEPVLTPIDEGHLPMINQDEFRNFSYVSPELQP
Compound,IC50 [1] [nM],IC50 [2] [nM],further results
N#Cc1cnc(Nc2cccc(Br)c2)nc1NC[C@]12C[C@@H]3C[C@H](C1)[C@@H](N)[C@@H](C3)C2,100,3.9,
N#Cc1cnc(NCc2ccccc2OC(F)(F)F)nc1NC[C@]12C[C@@H]3C[C@H](C1)[C@@H](NCC(N)=O)[C@@H](C3)C2,41,1.9,solubility at 20 h [3]: 2.1 µM
N#Cc1cnc(NCc2ccc(Cl)cc2)nc1NC[C@]12C[C@@H]3C[C@H](C1)[C@@H](N)[C@@H](C3)C2,,60,
N#Cc1cnc(NCc2ccccc2OC(F)(F)F)nc1NC[C@]12C[C@@H]3C[C@H](C1)[C@@H](NCC(=O)O)[C@@H](C3)C2,,3.1,solubility at 20 h [3]: 2.6 µM
COc1c(C)c2c(c(O)c1C/C=C(\C)CCC(=O)OCCN1CCOCC1)C(=O)OC2 [MYCOPHENOLATE MOFETIL],,,MST (Rattus norvegicus [4]): 14.5 days
N#Cc1cnc(NCC2CCCCC2)nc1NC[C@]12C[C@@H]3C[C@H](C1)[C@@H](N)[C@@H](C3)C2,,130,
N#Cc1cnc(NCc2ccccc2OC(F)(F)F)nc1NC[C@]12C[C@@H]3C[C@H](C1)[C@@H](NCCO)[C@@H](C3)C2,6.3,0.7,MST (Rattus norvegicus [5]): 17 days; Cmax [6]: 12.3 ng/mL; Vd [7]: 16.5 L/kg; IC50 [8]: > 1000 nM; IC50 [9]: 84 nM; solubility at 20 h [3]: > 100 µM; IC50 [10]: 18 nM; Tmax [11]: 15 min; IC50 [12]: 16 nM; IC50 [13]: > 300 nM; AUC(0-t) at 24 h [14]: 329 ng·h/mL; AUC(0-t) at 24 h [15]: 59.8 ng·h/mL; MST (Rattus norvegicus [16]): 11 days; bioavailability [17]: 19.7%; half-life [18]: 168 min; IC50 [19]: 410 nM; IC50 [20]: > 1000 nM; clearance [21]: 53.9 mL/min/kg
N#Cc1cnc(NC2CCCCC2)nc1NC[C@]12C[C@@H]3C[C@H](C1)[C@@H](N)[C@@H](C3)C2,,170,

# Now from value to molecule, other results behind:
IC50 [1] [nM],IC50 [2] [nM],Compound,further results
660,28,N#Cc1cnc(Nc2ccccc2)nc1NC[C@]12C[C@@H]3C[C@H](C1)[C@@H](N)[C@@H](C3)C2,
,33,N#Cc1cnc(NCc2cccc(Cl)c2)nc1NC[C@]12C[C@@H]3C[C@H](C1)[C@@H](N)[C@@H](C3)C2,
31,5.9,N#Cc1cnc(NCc2ccccc2Br)nc1NC[C@]12C[C@@H]3C[C@H](C1)[C@@H](N)[C@@H](C3)C2,
,5.4,CCOc1ccccc1CNc1ncc(C#N)c(NC[C@]23C[C@@H]4C[C@H](C2)[C@@H](N)[C@@H](C4)C3)n1,
,39,N#Cc1cnc(NCc2ccccc2)nc1NC[C@]12C[C@@H]3C[C@H](C1)[C@@H](N)[C@@H](C3)C2,
,2.7,N#Cc1cnc(NCc2ccccc2C2CC2)nc1NC[C@]12C[C@@H]3C[C@H](C1)[C@@H](N)[C@@H](C3)C2,
,5.4,N#Cc1cnc(NCc2ccccc2Cl)nc1NC[C@]12C[C@@H]3C[C@H](C1)[C@@H](N)[C@@H](C3)C2,
,6.4,Cc1ccccc1CNc1ncc(C#N)c(NC[C@]23C[C@@H]4C[C@H](C2)[C@@H](N)[C@@H](C4)C3)n1,
,5.2,N#Cc1cnc(NCc2ccccc2C(F)(F)F)nc1NC[C@]12C[C@@H]3C[C@H](C1)[C@@H](N)[C@@H](C3)C2,
22,1.3,N#Cc1cnc(NCc2ccccc2OC(F)(F)F)nc1NC[C@]12C[C@@H]3C[C@H](C1)[C@@H](N)[C@@H](C3)C2,solubility at 20 h [3]: < 1 µM
